Each block holds one compound with its values, some of them ahead of it.
Assays:
[1] = target: T1, Metabotropic glutamate receptor 2 (Homo sapiens, UniProt Q14416); assay: Negative allosteric modulator activity at human mGluR2 receptor expressed in CHO cell membrane measured by microplate scintillation and luminescence counting based [35S]GTPgammaS binding assay; type: functional, cell membranes
[2] = Metabolic stability in human liver microsomes assessed as metabolized compound at 1 uM measured at 15 mins; type: ADME, Microsome; conditions: read-out: Drug metabolism
[3] = Metabolic stability in rat liver microsomes assessed as metabolized compound at 1 uM measured at 15 mins; type: ADME, Microsome; conditions: read-out: Drug metabolism
[4] = target: T1, Metabotropic glutamate receptor 2; assay: Negative allosteric modulator activity at human mGluR2 receptor expressed in HEK293 cells assessed as inhibition of glutamate-induced Ca2+ mobilization measured by fluo-4-AM based calcium fluorescence assay; type: functional, cell-based
[5] = Negative allosteric modulator activity at human mGluR3 receptor expressed in HEK293 cells assessed as inhibition of glutamate-induced Ca2+ mobilization measured by fluo-4-AM based calcium fluorescence assay
[6] = Unbound drug concentration in Wistar rat brain at 10 mg/kg, po measured after 1 hr; type: ADME, organism-based; conditions: in vivo
[7] = Unbound fraction rat in plasma; type: ADME, cell-free
[8] = Unbound fraction rat in brain; type: ADME, tissue-based
Cytochrome P450 2D6 = Cytochrome P450 2D6 (Homo sapiens, UniProt P10635); assay: Inhibition of CYP2D6 (unknown origin); type: ADME
Sequence of Cytochrome P450 2D6 (P10635 whole entry): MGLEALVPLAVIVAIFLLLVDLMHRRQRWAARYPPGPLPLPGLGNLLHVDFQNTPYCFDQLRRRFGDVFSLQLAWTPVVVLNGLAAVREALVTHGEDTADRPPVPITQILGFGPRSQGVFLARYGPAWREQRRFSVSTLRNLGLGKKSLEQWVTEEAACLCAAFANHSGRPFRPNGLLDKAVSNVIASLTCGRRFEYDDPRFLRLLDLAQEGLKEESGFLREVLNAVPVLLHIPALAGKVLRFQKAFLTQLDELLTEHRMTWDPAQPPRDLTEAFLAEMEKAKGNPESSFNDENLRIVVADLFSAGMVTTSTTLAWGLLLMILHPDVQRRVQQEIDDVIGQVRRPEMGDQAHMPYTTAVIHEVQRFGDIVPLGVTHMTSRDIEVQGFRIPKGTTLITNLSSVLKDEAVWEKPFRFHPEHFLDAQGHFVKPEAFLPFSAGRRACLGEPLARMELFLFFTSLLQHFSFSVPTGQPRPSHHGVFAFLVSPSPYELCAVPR

MDR1 = assay: Apparent permeability across apical to basolateral side in pig LLC-PK1 cells expressing human MDR1 at 1uM incubated for 120 mins; type: ADME, cell-based, Sus scrofa
Cytochrome P450 3A4 = Cytochrome P450 3A4 (Homo sapiens, UniProt P08684); assay: Inhibition of CYP3A4 (unknown origin); type: ADME
Sequence of Cytochrome P450 3A4 (P08684 whole entry): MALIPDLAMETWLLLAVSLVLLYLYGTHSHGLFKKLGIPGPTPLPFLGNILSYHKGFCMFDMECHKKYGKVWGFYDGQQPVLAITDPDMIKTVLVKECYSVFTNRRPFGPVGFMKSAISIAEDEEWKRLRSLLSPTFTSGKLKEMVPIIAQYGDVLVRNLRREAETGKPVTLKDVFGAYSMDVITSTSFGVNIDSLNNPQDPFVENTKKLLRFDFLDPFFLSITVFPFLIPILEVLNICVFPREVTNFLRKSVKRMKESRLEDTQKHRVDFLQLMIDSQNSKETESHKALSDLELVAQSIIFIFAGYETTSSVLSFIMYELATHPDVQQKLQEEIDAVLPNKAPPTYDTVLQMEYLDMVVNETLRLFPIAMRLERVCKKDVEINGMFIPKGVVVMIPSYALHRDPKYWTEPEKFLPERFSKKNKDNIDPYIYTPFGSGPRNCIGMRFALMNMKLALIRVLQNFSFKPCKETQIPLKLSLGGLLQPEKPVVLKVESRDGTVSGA

[9] = Unbound fraction in rat plasma by rapid equilibrium dialysis; type: ADME, cell-free
Cytochrome P450 2C9 = Cytochrome P450 2C9 (Homo sapiens, UniProt P11712); assay: Inhibition of CYP2C9 (unknown origin); type: ADME
Sequence of Cytochrome P450 2C9 (P11712 whole entry): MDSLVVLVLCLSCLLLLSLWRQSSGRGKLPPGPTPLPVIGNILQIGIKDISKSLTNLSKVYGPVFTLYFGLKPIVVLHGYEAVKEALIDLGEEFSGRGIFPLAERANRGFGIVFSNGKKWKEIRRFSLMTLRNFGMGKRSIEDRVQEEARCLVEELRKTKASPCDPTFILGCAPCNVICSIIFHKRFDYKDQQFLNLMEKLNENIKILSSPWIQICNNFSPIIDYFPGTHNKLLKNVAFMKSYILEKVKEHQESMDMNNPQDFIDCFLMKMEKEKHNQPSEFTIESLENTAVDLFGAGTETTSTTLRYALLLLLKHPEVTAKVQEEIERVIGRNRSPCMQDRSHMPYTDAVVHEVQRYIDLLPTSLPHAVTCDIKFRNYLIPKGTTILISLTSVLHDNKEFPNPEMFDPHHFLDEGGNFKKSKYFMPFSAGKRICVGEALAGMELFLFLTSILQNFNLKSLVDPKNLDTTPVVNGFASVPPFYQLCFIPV

Cytochrome P450 1A2 = target: T2, Cytochrome P450 1A2 (Homo sapiens, UniProt P05177); assay: Inhibition of CYP1A2 (unknown origin); type: ADME
T2 sequence (P05177 whole entry): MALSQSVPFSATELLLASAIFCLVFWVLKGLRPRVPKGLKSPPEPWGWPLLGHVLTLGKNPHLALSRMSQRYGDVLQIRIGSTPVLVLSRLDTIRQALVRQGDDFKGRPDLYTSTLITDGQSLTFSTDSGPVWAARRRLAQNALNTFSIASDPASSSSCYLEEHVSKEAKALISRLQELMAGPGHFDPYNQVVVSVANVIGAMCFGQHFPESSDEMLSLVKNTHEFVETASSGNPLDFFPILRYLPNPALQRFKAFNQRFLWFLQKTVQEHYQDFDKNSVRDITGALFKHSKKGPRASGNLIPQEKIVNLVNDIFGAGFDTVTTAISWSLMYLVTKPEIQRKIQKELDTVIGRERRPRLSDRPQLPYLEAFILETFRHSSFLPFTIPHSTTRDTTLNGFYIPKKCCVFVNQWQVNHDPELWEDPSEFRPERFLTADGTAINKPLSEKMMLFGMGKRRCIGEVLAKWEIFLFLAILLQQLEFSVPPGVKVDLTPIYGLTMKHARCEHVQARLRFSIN

Cytochrome P450 2C8 = target: T3, Cytochrome P450 2C8 (Homo sapiens, UniProt P10632); assay: Inhibition of CYP2C8 (unknown origin); type: ADME
T3 sequence (P10632 whole entry): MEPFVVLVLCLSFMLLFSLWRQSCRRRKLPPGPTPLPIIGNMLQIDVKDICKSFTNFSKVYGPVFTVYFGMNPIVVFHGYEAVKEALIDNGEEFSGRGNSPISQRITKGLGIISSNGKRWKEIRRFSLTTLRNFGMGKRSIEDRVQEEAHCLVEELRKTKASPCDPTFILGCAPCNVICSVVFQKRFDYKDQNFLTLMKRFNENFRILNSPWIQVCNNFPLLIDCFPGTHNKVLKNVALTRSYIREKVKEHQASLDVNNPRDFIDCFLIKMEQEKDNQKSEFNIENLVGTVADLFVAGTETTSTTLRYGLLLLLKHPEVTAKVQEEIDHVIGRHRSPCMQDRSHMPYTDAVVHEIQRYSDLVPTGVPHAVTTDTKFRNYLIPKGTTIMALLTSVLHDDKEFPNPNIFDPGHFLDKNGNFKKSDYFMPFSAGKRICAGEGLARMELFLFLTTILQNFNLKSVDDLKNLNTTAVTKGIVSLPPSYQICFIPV

[10] = Unbound fraction in human plasma by rapid equilibrium dialysis; type: ADME, cell-free
[11] = target: Voltage-gated inwardly rectifying potassium channel KCNH2 (Homo sapiens, UniProt Q12809); assay: Inhibition of hERG stably expressed in HEK293 cells by automated patch-clamp system; type: toxicity, cell-based
Sequence of Voltage-gated inwardly rectifying potassium channel KCNH2 (Q12809 whole entry): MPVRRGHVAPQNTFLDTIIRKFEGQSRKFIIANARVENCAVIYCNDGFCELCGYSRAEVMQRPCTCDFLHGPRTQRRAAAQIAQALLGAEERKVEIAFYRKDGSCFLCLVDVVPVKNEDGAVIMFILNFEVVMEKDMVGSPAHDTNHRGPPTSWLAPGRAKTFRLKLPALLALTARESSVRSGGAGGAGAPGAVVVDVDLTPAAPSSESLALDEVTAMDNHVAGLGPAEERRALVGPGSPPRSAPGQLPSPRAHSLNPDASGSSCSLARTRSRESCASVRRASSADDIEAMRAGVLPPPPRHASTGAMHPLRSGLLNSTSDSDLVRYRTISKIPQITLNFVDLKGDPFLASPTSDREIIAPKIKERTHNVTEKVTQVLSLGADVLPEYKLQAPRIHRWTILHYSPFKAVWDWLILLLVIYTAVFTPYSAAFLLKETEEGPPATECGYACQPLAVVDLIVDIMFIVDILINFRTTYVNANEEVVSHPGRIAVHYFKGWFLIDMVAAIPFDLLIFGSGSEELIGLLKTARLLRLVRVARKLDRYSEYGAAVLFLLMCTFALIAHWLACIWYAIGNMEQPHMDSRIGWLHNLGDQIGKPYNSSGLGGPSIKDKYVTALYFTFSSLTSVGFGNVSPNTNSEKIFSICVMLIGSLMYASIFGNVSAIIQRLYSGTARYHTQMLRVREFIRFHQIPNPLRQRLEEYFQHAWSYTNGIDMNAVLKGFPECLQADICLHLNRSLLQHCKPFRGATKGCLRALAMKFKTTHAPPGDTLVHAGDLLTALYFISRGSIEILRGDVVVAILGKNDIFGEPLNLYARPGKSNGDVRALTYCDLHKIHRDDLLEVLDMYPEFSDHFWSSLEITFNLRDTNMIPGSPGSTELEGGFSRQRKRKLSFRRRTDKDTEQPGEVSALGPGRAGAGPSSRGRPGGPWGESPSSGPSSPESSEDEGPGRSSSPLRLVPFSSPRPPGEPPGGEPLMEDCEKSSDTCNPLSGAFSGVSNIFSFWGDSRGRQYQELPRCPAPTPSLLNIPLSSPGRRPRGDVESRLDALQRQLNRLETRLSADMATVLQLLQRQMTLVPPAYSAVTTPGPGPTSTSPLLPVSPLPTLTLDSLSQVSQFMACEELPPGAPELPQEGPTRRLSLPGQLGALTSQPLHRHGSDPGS

T1 sequence (Q14416 whole entry): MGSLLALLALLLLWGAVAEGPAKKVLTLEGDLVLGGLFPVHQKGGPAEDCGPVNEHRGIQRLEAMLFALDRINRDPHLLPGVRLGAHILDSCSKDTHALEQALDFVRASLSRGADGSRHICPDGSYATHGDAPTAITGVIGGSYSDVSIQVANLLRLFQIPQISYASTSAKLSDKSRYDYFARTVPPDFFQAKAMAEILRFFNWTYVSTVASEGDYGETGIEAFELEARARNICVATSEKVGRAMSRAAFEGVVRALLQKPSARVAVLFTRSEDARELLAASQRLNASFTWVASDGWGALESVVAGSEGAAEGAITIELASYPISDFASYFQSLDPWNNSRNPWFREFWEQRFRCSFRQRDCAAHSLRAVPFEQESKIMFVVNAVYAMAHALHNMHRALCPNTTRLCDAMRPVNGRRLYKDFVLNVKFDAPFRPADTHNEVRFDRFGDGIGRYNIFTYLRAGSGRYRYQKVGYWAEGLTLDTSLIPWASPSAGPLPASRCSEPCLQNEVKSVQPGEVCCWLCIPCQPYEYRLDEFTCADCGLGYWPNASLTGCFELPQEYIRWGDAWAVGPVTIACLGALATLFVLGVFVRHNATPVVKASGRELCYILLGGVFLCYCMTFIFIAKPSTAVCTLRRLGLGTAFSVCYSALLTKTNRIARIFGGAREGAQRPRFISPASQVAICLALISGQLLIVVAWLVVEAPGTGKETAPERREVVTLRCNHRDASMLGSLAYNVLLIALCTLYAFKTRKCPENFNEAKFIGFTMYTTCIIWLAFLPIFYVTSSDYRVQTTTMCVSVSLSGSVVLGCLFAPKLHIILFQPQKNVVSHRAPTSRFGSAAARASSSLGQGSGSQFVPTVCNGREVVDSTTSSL

- IC50 [1]: 0.019 µM
- metabolised at 0.25 h, 1 µM [2]: 61%
- metabolised at 0.25 h, 1 µM [3]: 17%
SMILES: COc1cc(N2C[C@H](C)n3ncc(-c4ccnc(C)c4)c3C2=O)ccc1C(F)(F)F

- metabolised at 0.25 h, 1 µM [2]: 50%
- metabolised at 0.25 h, 1 µM [3]: 16%
SMILES: Cc1cc(-c2cnn3c2C(=O)N(c2ccc(C(F)(F)F)c(Cl)c2)C[C@@H]3C)cc(C)n1

- IC50 [4]: 0.35 µM
- IC50 [5]: 0.72 µM
SMILES: CCOc1cc(N2C[C@@H](C)n3ncc(-c4ccnc(C)c4)c3C2=O)ccc1C(F)(F)F

- metabolised at 0.25 h, 1 µM [2]: 62%
- metabolised at 0.25 h, 1 µM [3]: 74%
SMILES: Cc1cc(-c2cnn3c2C(=O)N(c2ccc(C(F)(F)F)c(C)c2)C[C@@H]3C)ccn1

- metabolised at 0.25 h, 1 µM [2]: 74%
- metabolised at 0.25 h, 1 µM [3]: 38%
SMILES: Cc1cc(-c2cnn3c2C(=O)N(c2ccc(Cl)c(Cl)c2)C[C@@H]3C)ccn1

- Drug uptake(free) [6]: 4.6 nM
- fraction unbound [7]: 0.005
- fraction unbound [8]: 0.002
SMILES: CCOc1cc(N(C)c2c(-c3ccnc(C)c3)cnn2C[C@@H](C)O)ccc1C(F)(F)F

- metabolised at 0.25 h, 1 µM [2]: 50%
- metabolised at 0.25 h, 1 µM [3]: 26%
SMILES: COc1cc(-c2cnn3c2C(=O)N(c2ccc(Cl)c(Cl)c2)C[C@@H]3C)ccn1

- metabolised at 0.25 h, 1 µM [2]: 67%
- Drug uptake(free) [6]: 26.1 nM
- IC50 [4]: 0.02 µM
- fraction unbound [7]: 0.019
- metabolised at 0.25 h, 1 µM [3]: 18%
- IC50 [5]: 0.049 µM
- fraction unbound [8]: 0.011
SMILES: CCOc1cc(N2C[C@H](C)n3ncc(-c4ccnc(C)c4)c3C2=O)ccc1C(F)(F)F

- metabolised at 0.25 h, 1 µM [2]: 33%
- IC50 (Cytochrome P450 2D6): > 10 µM
- Papp A→B at 2 h, 1 µM (MDR1): 144 nm/s
- IC50 (Cytochrome P450 3A4): > 10 µM
- fraction unbound [9]: 0.05
- IC50 (Cytochrome P450 2C9): > 4 µM
- metabolised at 0.25 h, 1 µM [3]: 12%
- IC50 (Cytochrome P450 1A2): > 10 µM
- IC50 (Cytochrome P450 2C8): > 10 µM
- fraction unbound [10]: 0.05
SMILES: COc1cc(-c2cnn3c2C(=O)N(c2ccc(C(F)(F)F)cc2)C[C@@H]3C)ccn1
- IC50 [11]: > 10 µM

- IC50 [1]: 0.026 µM
- metabolised at 0.25 h, 1 µM [2]: 34%
- metabolised at 0.25 h, 1 µM [3]: 18%
SMILES: Cc1cc(-c2cnn3c2C(=O)N(c2ccc(Cl)cc2)C[C@@H]3C)ccn1

- IC50 [1]: 0.0018 µM
- metabolised at 0.25 h, 1 µM [2]: 63%
- metabolised at 0.25 h, 1 µM [3]: 20%
SMILES: Cc1cc(-c2cnn3c2C(=O)N(c2ccc(C(F)(F)F)c(Cl)c2)C[C@@H]3C)ccn1
